Results as given in ChEMBL document CHEMBL1909046, “DrugMatrix in vitro pharmacology data”.

Key:
Cytochrome P450 3A4 = Cytochrome P450 3A4 (Homo sapiens, UniProt P08684); conditions: bti-tn-5b1-4; also: in other assays of this panel Not Active means under 50% inhibition at 10 µM
[1] = target: T1, 3-hydroxy-3-methylglutaryl-coenzyme A reductase (Homo sapiens, UniProt P04035); parameters: species or system Escherichia coli;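 also: enzyme inhibition assay of HMG-CoA reductase using radiolabeled [14C]HMG-CoA as substrate; in other assays of this panel Not Active means under 50% inhibition at 10 µM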
T1 sequence (P04035 whole entry): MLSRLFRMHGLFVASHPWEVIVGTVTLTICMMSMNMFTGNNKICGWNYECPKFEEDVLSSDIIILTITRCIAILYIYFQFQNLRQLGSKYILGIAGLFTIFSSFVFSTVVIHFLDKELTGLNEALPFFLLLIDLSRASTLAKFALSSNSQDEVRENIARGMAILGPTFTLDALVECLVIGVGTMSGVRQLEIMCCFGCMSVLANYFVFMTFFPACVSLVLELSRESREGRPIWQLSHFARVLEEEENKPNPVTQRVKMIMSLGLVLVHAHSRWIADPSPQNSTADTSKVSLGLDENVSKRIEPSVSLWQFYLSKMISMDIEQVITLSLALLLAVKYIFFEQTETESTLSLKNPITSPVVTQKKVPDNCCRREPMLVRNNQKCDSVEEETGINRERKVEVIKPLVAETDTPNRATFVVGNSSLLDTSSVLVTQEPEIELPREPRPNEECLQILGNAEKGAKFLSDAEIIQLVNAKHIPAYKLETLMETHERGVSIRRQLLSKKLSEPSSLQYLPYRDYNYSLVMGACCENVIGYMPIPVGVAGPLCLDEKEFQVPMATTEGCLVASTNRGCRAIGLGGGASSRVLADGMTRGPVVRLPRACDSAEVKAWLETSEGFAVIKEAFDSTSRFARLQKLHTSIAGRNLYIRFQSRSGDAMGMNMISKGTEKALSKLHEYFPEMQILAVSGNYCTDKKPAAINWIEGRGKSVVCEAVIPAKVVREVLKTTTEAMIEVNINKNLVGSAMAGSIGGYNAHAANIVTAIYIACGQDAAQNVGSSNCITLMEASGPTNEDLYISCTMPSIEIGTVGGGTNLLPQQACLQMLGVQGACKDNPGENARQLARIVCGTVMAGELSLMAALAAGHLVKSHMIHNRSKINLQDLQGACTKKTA

Melanocortin receptor 4 = Melanocortin receptor 4 (Homo sapiens, UniProt P32245); format: cell membranes, HEK293, Membrane; conditions: hek293; also: in other assays of this panel Not Active means under 50% inhibition at 10 µM
Calcitonin receptor = target: T2, Calcitonin receptor (Homo sapiens, UniProt P30988); format: cell membranes, Membrane; conditions: t47d; also: in other assays of this panel Not Active means under 50% inhibition at 10 µM
T2 sequence (P30988 whole entry): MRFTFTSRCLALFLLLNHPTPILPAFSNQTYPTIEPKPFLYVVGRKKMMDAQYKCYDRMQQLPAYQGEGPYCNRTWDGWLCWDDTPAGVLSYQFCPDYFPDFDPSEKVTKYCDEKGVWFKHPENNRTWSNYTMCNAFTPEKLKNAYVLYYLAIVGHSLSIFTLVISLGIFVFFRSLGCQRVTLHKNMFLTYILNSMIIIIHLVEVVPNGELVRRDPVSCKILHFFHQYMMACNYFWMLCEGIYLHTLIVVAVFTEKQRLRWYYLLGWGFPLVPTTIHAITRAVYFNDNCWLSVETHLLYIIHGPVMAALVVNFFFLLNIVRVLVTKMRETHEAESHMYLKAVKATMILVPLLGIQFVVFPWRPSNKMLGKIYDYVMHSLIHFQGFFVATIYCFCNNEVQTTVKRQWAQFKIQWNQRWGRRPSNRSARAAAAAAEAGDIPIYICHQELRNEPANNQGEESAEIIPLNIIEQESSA

[2] = target: Epidermal growth factor receptor (Homo sapiens, UniProt P00533); assay: DRUGMATRIX: Protein Tyrosine Kinase, EGF Receptor enzyme inhibition (substrate: Poly(Glu:Tyr)); format: cell-based, Insect cells; conditions: insect cells; Not Active = under 50% inhibition at 10 µM
[3] = DRUGMATRIX: Glutamate, Kainate radioligand binding (ligand: [3H] Kainic acid); format: cell membranes, Rattus norvegicus, Wistar, Brain, Membrane; conditions: Not Active = under 50% inhibition at 10 µM
[4] = target: T3, Nitric oxide synthase, inducible (Mus musculus, UniProt P29477); parameters: species or system Escherichia coli
T3 sequence (P29477 whole entry): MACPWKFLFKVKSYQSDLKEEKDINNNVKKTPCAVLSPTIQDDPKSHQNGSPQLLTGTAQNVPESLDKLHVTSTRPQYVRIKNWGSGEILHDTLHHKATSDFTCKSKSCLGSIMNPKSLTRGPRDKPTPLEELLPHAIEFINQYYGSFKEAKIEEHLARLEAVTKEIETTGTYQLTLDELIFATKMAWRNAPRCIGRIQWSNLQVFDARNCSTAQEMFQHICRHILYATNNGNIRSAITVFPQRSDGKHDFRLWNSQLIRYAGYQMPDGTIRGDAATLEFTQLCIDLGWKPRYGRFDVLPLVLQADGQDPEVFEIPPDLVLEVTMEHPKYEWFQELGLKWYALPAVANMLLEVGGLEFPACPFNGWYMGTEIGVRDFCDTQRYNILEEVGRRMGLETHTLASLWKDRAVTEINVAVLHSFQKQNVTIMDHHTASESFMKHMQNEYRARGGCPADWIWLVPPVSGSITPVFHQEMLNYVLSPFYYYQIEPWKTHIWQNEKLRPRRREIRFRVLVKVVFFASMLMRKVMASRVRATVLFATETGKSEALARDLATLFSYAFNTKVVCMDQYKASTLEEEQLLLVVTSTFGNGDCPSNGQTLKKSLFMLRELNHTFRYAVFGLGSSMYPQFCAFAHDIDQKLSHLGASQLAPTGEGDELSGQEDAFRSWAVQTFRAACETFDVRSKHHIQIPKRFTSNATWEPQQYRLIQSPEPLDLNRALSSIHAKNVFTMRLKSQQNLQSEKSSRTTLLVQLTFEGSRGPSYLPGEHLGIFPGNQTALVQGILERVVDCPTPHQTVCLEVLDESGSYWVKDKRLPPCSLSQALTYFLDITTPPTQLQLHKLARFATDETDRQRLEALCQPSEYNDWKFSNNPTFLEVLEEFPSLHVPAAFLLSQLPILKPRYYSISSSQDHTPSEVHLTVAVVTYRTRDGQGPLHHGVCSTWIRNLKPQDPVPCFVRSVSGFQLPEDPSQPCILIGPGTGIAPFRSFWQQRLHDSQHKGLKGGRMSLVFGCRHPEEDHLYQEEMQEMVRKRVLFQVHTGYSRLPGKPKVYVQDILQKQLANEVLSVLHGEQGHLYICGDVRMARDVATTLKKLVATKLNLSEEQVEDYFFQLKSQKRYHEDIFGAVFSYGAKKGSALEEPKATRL

Cytochrome P450 2C9 = Cytochrome P450 2C9 (Homo sapiens, UniProt P11712); conditions: bti-tn-5b1-4; also: in other assays of this panel Not Active means under 50% inhibition at 10 µM
Sequence of Cytochrome P450 2C9 (P11712 whole entry): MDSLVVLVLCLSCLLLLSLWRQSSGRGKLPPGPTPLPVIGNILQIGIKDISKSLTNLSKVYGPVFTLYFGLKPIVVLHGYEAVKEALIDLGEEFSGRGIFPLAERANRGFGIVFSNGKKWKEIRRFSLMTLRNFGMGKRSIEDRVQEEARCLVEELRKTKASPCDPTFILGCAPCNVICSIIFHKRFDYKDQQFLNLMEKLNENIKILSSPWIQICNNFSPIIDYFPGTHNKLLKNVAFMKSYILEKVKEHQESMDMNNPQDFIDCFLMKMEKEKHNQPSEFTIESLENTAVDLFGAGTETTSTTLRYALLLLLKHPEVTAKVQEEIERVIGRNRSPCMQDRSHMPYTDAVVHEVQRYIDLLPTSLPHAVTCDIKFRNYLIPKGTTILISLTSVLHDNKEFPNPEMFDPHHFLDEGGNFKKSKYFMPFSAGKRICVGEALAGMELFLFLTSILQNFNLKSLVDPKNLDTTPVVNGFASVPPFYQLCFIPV

Sequence of Epidermal growth factor receptor (P00533 whole entry): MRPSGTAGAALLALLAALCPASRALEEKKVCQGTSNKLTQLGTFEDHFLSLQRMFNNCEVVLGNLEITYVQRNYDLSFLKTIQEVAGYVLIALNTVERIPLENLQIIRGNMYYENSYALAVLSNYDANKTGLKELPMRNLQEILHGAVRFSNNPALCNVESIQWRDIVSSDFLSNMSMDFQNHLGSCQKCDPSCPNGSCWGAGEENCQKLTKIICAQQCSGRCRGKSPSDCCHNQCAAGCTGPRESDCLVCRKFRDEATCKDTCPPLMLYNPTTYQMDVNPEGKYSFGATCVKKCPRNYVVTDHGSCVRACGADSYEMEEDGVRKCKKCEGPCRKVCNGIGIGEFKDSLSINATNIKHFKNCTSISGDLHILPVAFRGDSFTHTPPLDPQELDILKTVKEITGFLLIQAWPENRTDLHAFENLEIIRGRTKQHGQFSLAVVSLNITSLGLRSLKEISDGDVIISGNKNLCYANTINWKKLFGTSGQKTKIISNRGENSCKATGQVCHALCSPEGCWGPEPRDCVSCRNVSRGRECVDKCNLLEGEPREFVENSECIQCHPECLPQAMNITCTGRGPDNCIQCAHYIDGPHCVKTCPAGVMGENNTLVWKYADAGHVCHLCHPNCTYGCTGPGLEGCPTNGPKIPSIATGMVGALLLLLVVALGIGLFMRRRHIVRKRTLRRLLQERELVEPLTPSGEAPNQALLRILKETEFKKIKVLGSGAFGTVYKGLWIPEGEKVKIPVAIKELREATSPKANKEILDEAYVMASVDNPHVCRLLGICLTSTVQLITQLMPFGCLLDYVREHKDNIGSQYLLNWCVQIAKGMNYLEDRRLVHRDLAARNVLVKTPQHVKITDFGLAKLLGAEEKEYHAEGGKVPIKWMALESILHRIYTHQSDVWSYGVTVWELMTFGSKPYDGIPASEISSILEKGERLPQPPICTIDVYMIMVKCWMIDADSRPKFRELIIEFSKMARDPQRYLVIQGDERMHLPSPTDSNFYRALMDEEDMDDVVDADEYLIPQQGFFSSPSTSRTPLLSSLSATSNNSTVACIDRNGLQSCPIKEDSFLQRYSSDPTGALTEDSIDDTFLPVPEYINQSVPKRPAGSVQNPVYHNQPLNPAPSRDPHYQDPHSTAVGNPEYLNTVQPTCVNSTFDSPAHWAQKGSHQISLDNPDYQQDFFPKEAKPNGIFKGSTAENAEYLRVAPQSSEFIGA
Sequence of Cytochrome P450 3A4 (P08684 whole entry): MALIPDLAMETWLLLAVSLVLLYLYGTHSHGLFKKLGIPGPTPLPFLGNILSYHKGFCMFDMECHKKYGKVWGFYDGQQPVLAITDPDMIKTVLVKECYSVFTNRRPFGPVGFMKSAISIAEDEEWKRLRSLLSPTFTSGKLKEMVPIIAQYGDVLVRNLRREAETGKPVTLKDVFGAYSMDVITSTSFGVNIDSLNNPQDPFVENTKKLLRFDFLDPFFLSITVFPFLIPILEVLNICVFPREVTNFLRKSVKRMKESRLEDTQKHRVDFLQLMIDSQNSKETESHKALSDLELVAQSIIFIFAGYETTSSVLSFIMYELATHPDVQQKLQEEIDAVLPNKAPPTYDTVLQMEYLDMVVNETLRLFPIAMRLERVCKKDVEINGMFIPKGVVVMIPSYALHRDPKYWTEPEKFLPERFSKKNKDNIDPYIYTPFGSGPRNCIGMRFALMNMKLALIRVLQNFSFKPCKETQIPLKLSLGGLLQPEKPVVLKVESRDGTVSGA
Sequence of Melanocortin receptor 4 (P32245 whole entry): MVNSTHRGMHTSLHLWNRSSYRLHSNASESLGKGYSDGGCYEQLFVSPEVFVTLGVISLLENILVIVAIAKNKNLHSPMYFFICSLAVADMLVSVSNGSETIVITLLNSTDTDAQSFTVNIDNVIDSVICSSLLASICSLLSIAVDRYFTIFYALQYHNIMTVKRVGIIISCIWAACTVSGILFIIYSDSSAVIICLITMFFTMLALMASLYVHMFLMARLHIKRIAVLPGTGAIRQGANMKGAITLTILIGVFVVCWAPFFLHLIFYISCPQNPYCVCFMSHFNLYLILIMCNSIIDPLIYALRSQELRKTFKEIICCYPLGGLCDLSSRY

NC(=O)C[S+]([O-])C(c1ccccc1)c1ccccc1 (stereo not given) [MODAFINIL]
Not Active: IC50 (Cytochrome P450 3A4) | Ki (Cytochrome P450 3A4) | IC50 [1] | IC50 (Melanocortin receptor 4) | IC50 (Calcitonin receptor) | IC50 [2] | IC50 [3] | Ki [3] | IC50 [4] | IC50 (Cytochrome P450 2C9) | Ki (Cytochrome P450 2C9)

CCN(CC)CCOCCC1=CCC2CC1C2(C)C (stereo not given) [MYRTECAINE]
Not Active: IC50 (Cytochrome P450 3A4) | Ki (Cytochrome P450 3A4) | IC50 [1] | IC50 (Melanocortin receptor 4) | IC50 (Calcitonin receptor) | IC50 [2] | IC50 [3] | Ki [3] | IC50 [4] | IC50 (Cytochrome P450 2C9) | Ki (Cytochrome P450 2C9)

O=C(O)c1cccnc1Nc1cccc(C(F)(F)F)c1 [NIFLUMIC ACID]
Not Active: IC50 (Cytochrome P450 3A4) | Ki (Cytochrome P450 3A4) | IC50 [1] | IC50 (Melanocortin receptor 4) | IC50 (Calcitonin receptor) | IC50 [2] | IC50 [3] | Ki [3] | IC50 [4] | IC50 (Cytochrome P450 2C9) | Ki (Cytochrome P450 2C9)

COC(=O)Nc1nc2ccc(C(=O)c3cccs3)cc2[nH]1 [NOCODAZOLE]
Not Active: IC50 (Cytochrome P450 3A4) | Ki (Cytochrome P450 3A4) | IC50 [1] | IC50 (Melanocortin receptor 4) | IC50 (Calcitonin receptor) | IC50 [2] | IC50 [3] | Ki [3] | IC50 [4] | IC50 (Cytochrome P450 2C9) | Ki (Cytochrome P450 2C9)

C#CC1(O)CC[C@H]2[C@@H]3CCC4=CC(=O)CC[C@@H]4[C@H]3CC[C@@]21CC (stereo not given in full) [NORGESTREL]
Not Active: IC50 (Cytochrome P450 3A4) | Ki (Cytochrome P450 3A4) | IC50 [1] | IC50 (Melanocortin receptor 4) | IC50 (Calcitonin receptor) | IC50 [2] | IC50 [3] | Ki [3] | IC50 [4] | IC50 (Cytochrome P450 2C9) | Ki (Cytochrome P450 2C9)

COC(=O)Nc1nc2ccc([S+]([O-])c3ccccc3)cc2[nH]1 (stereo not given) [OXFENDAZOLE]
Not Active: IC50 (Cytochrome P450 3A4) | Ki (Cytochrome P450 3A4) | IC50 [1] | IC50 (Melanocortin receptor 4) | IC50 (Calcitonin receptor) | IC50 [2] | IC50 [3] | Ki [3] | IC50 [4] | IC50 (Cytochrome P450 2C9) | Ki (Cytochrome P450 2C9)

CC(=O)O[C@H]1C(=O)[C@@]2(C)[C@H]([C@H](OC(=O)c3ccccc3)[C@]3(O)C[C@H](OC(=O)[C@H](O)[C@@H](NC(=O)c4ccccc4)c4ccccc4)C(C)=C1C3(C)C)[C@]1(OC(C)=O)CO[C@@H]1C[C@@H]2O [PACLITAXEL]
Not Active: IC50 (Cytochrome P450 3A4) | Ki (Cytochrome P450 3A4) | IC50 [1] | IC50 (Melanocortin receptor 4) | IC50 (Calcitonin receptor) | IC50 [2] | IC50 [3] | Ki [3] | IC50 [4] | IC50 (Cytochrome P450 2C9) | Ki (Cytochrome P450 2C9)

C[n+]1ccc(-c2cc[n+](C)cc2)cc1.[Cl-].[Cl-] [PARAQUAT DICHLORIDE]
Not Active: IC50 (Cytochrome P450 3A4) | Ki (Cytochrome P450 3A4) | IC50 [1] | IC50 (Melanocortin receptor 4) | IC50 (Calcitonin receptor) | IC50 [2] | IC50 [3] | Ki [3] | IC50 [4] | IC50 (Cytochrome P450 2C9) | Ki (Cytochrome P450 2C9)

CCn1cc(C(=O)O)c(=O)c2cnc(N3CCCC3)nc21 [PIROMIDIC ACID]
Not Active: IC50 (Cytochrome P450 3A4) | Ki (Cytochrome P450 3A4) | IC50 [1] | IC50 (Melanocortin receptor 4) | IC50 (Calcitonin receptor) | IC50 [2] | IC50 [3] | Ki [3] | IC50 [4] | IC50 (Cytochrome P450 2C9) | Ki (Cytochrome P450 2C9)

C[n+]1ccccc1/C=N/O.[Cl-] [PRALIDOXIME CHLORIDE]
Not Active: IC50 (Cytochrome P450 3A4) | Ki (Cytochrome P450 3A4) | IC50 [1] | IC50 (Melanocortin receptor 4) | IC50 (Calcitonin receptor) | IC50 [2] | IC50 [3] | Ki [3] | IC50 [4] | IC50 (Cytochrome P450 2C9) | Ki (Cytochrome P450 2C9)

COc1cc2nc(N3CCN(C(=O)c4ccco4)CC3)nc(N)c2cc1OC [PRAZOSIN]
Not Active: IC50 (Cytochrome P450 3A4) | Ki (Cytochrome P450 3A4) | IC50 [1] | IC50 (Melanocortin receptor 4) | IC50 (Calcitonin receptor) | IC50 [2] | IC50 [3] | Ki [3] | IC50 [4] | IC50 (Cytochrome P450 2C9) | Ki (Cytochrome P450 2C9)

C[C@]12C=CC(=O)C=C1CC[C@@H]1[C@@H]2[C@@H](O)C[C@@]2(C)[C@H]1CC[C@]2(O)C(=O)CO [PREDNISOLONE]
Not Active: IC50 (Cytochrome P450 3A4) | Ki (Cytochrome P450 3A4) | IC50 [1] | IC50 (Melanocortin receptor 4) | IC50 (Calcitonin receptor) | IC50 [2] | IC50 [3] | Ki [3] | IC50 [4] | IC50 (Cytochrome P450 2C9) | Ki (Cytochrome P450 2C9)

CC(=O)[C@H]1[C@H](C#N)C[C@H]2[C@@H]3CC=C4C[C@@H](O)CC[C@]4(C)[C@H]3CC[C@@]21C [PREGNENOLONE CARBONITRILE]
Not Active: IC50 (Cytochrome P450 3A4) | Ki (Cytochrome P450 3A4) | IC50 [1] | IC50 (Melanocortin receptor 4) | IC50 (Calcitonin receptor) | IC50 [2] | IC50 [3] | Ki [3] | IC50 [4] | IC50 (Cytochrome P450 2C9) | Ki (Cytochrome P450 2C9)

CCCN(CCC)S(=O)(=O)c1ccc(C(=O)O)cc1 [PROBENECID]
Not Active: IC50 (Cytochrome P450 3A4) | Ki (Cytochrome P450 3A4) | IC50 [1] | IC50 (Melanocortin receptor 4) | IC50 (Calcitonin receptor) | IC50 [2] | IC50 [3] | Ki [3] | IC50 [4] | IC50 (Cytochrome P450 2C9) | Ki (Cytochrome P450 2C9)

CCCOc1ccc(C(=O)OCCN(CC)CC)cc1N [PROPARACAINE]
Not Active: IC50 (Cytochrome P450 3A4) | Ki (Cytochrome P450 3A4) | IC50 [1] | IC50 (Melanocortin receptor 4) | IC50 (Calcitonin receptor) | IC50 [2] | IC50 [3] | Ki [3] | IC50 [4] | IC50 (Cytochrome P450 2C9) | Ki (Cytochrome P450 2C9)
